Laboratory results published in paper PMC11374673, “Discovery of isoquinoline sulfonamides as allosteric gyrase inhibitors with activity against fluoroquinolone-resistant bacteria” (Nature Chemistry, 2024).
In brackets after ≈: the same amount, converted by molar mass. Several values for one entry are separate records, joined by “and”; a condition that tells them apart may be missing. Equal entries are not always repeated. Where two headings read alike, the source gives them in different places.

Tests used:
[1] = tested on: HEK293T; assay: Cytotoxicity assay (MTT); type: cell-based, human; conditions: for MTT data (raw readout): HEK293T; for IC50: 24 h, MTT
Outline: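 HEK293T cells, maintained at 37 °C and 7% CO2 in Dulbecco’s modified Eagle medium with GlutaMax, antibiotics and serum, were plated in clear 96-well plates in 100 µl medium containing 1% fetal bovine serum and left 24 h to attach. After 24 h compound exposure, MTT (0.40 mg ml^−1) was added for 2 h. Formazan was dissolved in 100 µl DMSO and absorbance measured at 570 nm. Background-corrected IC50 values came from variable-slope non-linear fits.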

[2] = tested on: HepG2; assay: Cytotoxicity assay (MTT); type: cell-based, human; conditions: for IC50: MTT, 24 h
[3] = tested on: E. coli W3110 gyrA S97L, S83L, D87N; assay: MIC against CRISPR/Cas9 gyrA point mutants; type: cell-based, Escherichia coli; conditions: for MIC: Escherichia coli
Method: MIC was determined by broth microdilution. Single-colony cultures were grown to exponential phase (OD600 of 0.5) aerobically at 37 °C. In case of strains from the Keio collection, 50 µg ml^−1 kanamycin was supplemented to the media to ascertain a homogeneous population. The bacterial suspensions were diluted 100-fold in CAMHB and 50 µl was added to a twofold serial dilution series of test compounds (50 µl per well) in polypropylene 96-well microtitre plates to reach a volume of 100 µl. The plates were sealed with breathable membranes and incubated overnight at 37 °C with constant shaking (600 r.p.m.). The MIC was determined as the lowest concentration at which no visible bacterial growth was observed as compared with the inoculum controls from the median of a minimum of triplicates.
Mutants of the DNA gyrase subunit A encoding gene (gyrA) were constructed following the protocol for gene editing via the CRISPR–Cas9 system. Strains and plasmids used are listed in Supplementary Table 15, and primers used can be found in Supplementary Table 16. The following mutations were created: S97L in E. coli W3110. Two common mutations in the gyrA gene that give resistance to fluoroquinolone antibiotics were created in E. coli W3110, namely S83L and D87N. To create the gyrA (S97L) mutants, the construct psgRNA-gyrA-M5 was assembled as follows: The 20-nt spacer sequence was introduced by PCR on pTargetF using primers gyrA_P11 and gyrA_P12, the homology-directed repair (HDR) arms were amplified from E. coli W3110 genomic DNA by PCR using primer pairs gyrA_P05 and gyrA_P013, and gyrA_P08 and gyrA_P14. The three PCR fragments generated were cloned into the SpeI and BglII digested pTargetF via Gibson assembly. To avoid off-target effects of CRISPR, besides desired point mutation for gyrA (S97L), four other silent point mutations were also included in the HDR template. Consequently, the amino acid sequence of gyrA will remain the same in the generated mutant except for the desired mutation. Similarly, constructs psgRNA-gyrA-S83L and psgRNA-gyrA-D87N were created to introduce mutations S83L and D87N in gyrA, respectively. In psgRNA-gyrA-S83L, spacer sequence was introduced using primers gyrA_P12 and gyrA_P17, HDR template was amplified using primer pairs gyrA_P05 and gyrA_P18, and gyrA_P08 and gyrA_P19. In psgRNA-gyrA-D87N, spacer sequence was introduced using primers gyrA_P12 and gyrA_P20, HDR template was amplified using primer pairs gyrA_P05 and gyrA_P21, and gyrA_P08 and gyrA_P22. The verified constructs for gyrA engineering were transformed into E. coli W3110 carrying pCas9, and plated in LB containing kanamycin (50 µg ml^−1) for the selection of the pCas9 plasmid and spectinomycin (100 µg ml^−1) for the selection of psgRNA-gyrA-X. The plates were incubated at 30 °C. Plasmids were cured by growing the strains with 0.5 mM isopropylthiogalactoside with no antibiotics to lose first the psgRNA-gyrA plasmids. After losing the spectinomycin resistance, the strain was grown in LB with no antibiotics at 42 °C to lose the pCas plasmid. Colony PCR was performed on plasmid-free colonies using primers gyrA_P9 and gyrA_P10, and PCR products were sequenced to confirm the desired mutation

[4] = tested on: P. aeruginosa ATCC 27853; assay: MIC by broth microdilution; type: cell-based; conditions: Pseudomonas aeruginosa, ATCC27853; read-out: MIC P. aeruginosa ATCC 27853
Outline: (§1)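 Broth microdilution in CAMHB with twofold compound series; exponential-phase cultures (OD600 0.5) diluted 100-fold as inoculum, Keio strains pre-grown with 50 µg ml^−1 kanamycin. Overnight incubation at 37 °C, shaking 600 r.p.m. MIC is lowest concentration without visible growth, median of at least triplicates.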

[5] = tested on: A. baumannii ATCC BAA747; assay: MIC by broth microdilution; type: cell-based; conditions: Acinetobacter baumannii, ATCCBAA747; read-out: MIC A. baumannii ATCC BAA747
Outline: as §1

[6] = tested on: S. aureus ATCC 29213 / ATCC BAA1717; assay: MIC by broth microdilution; type: cell-based; conditions: Staphylococcus aureus
Outline: as §1

For O=S(=O)(NC[C@@H]1CC[C@H](c2ccc(-c3cccnc3)cc2)N1)c1cccc2cnccc12 [LEI-800], the “MTT data (raw readout)” value ([1]; 0.023 uM, experiment n = 1, technical triplicates, listed as LEI-800 (102)) was 1.514 and 1.430 and 1.503, the “MTT data (raw readout)” value ([1]; 0.023 uM, experiment n = 2, technical triplicates, listed as LEI-800 (102)) was 0.881 and 0.910 and 1.010 and the “MTT data (raw readout)” value ([1]; 0.068 uM, experiment n = 1, technical triplicates, listed as LEI-800 (102)) was 1.213 and 1.245 and 1.353. The “MTT data (raw readout)” value ([1]; 0.068 uM, experiment n = 2, technical triplicates, listed as LEI-800 (102)) was 0.864 and 0.913 and 1.008, the “MTT data (raw readout)” value ([1]; 0.21 uM, experiment n = 1, technical triplicates, listed as LEI-800 (102)) was 1.179 and 1.313 and 1.432 and the “MTT data (raw readout)” value ([1]; 0.21 uM, experiment n = 2, technical triplicates, listed as LEI-800 (102)) was 0.911 and 0.971 and 1.136. For the same compound, the “MTT data (raw readout)” value ([1]; 0.62 uM, experiment n = 1, technical triplicates, listed as LEI-800 (102)) was 1.153 and 1.305 and 1.537, the “MTT data (raw readout)” value ([1]; 0.62 uM, experiment n = 2, technical triplicates, listed as LEI-800 (102)) was 0.849 and 0.899 and 1.012 and the “MTT data (raw readout)” value ([1]; 1.85 uM, experiment n = 1, technical triplicates, listed as LEI-800 (102)) was 1.133 and 1.157 and 1.398. For the same compound, the “MTT data (raw readout)” value ([1]; 1.85 uM, experiment n = 2, technical triplicates, listed as LEI-800 (102)) was 0.878 and 0.935 and 1.030, the IC50 ([1]; Homo sapiens, HEK-293T) was 65 µM and the IC50 ([1]; listed as LEI-800 (102)) was over 50 µM. The “MTT data (raw readout)” value ([2]; HepG2, 0.023 uM, experiment n = 1, technical triplicates, listed as LEI-800 (102)) was 0.404 and 0.388 and 0.378, the “MTT data (raw readout)” value ([2]; HepG2, 0.023 uM, experiment n = 2, technical triplicates, listed as LEI-800 (102)) was 0.268 and 0.286 and 0.353 and the “MTT data (raw readout)” value ([2]; HepG2, 0.068 uM, experiment n = 1, technical triplicates, listed as LEI-800 (102)) was 0.391 and 0.379 and 0.435. For the same compound, the “MTT data (raw readout)” value ([2]; HepG2, 0.068 uM, experiment n = 2, technical triplicates, listed as LEI-800 (102)) was 0.250 and 0.293 and 0.379, the “MTT data (raw readout)” value ([2]; HepG2, 0.21 uM, experiment n = 1, technical triplicates, listed as LEI-800 (102)) was 0.377 and 0.445 and 0.431 and the “MTT data (raw readout)” value ([2]; HepG2, 0.21 uM, experiment n = 2, technical triplicates, listed as LEI-800 (102)) was 0.243 and 0.281 and 0.327. For the same compound, the “MTT data (raw readout)” value ([2]; HepG2, 0.62 uM, experiment n = 1, technical triplicates, listed as LEI-800 (102)) was 0.371 and 0.373 and 0.384, the “MTT data (raw readout)” value ([2]; HepG2, 0.62 uM, experiment n = 2, technical triplicates, listed as LEI-800 (102)) was 0.248 and 0.278 and 0.343 and the “MTT data (raw readout)” value ([2]; HepG2, 1.85 uM, experiment n = 1, technical triplicates, listed as LEI-800 (102)) was 0.402 and 0.403 and 0.424. For the same compound, the “MTT data (raw readout)” value ([2]; HepG2, 1.85 uM, experiment n = 2, technical triplicates, listed as LEI-800 (102)) was 0.281 and 0.293 and 0.337, the IC50 ([2]; Homo sapiens, HepG2, 24 h) was over 100 µM and the IC50 ([2]; listed as LEI-800 (102)) was over 50 µM. For the same compound, the “susceptibility of gyrA S83L / D87N mutants” value [3] was “did not affect the susceptibility”, the “susceptibility of gyrA S97L mutant” value ([3]; CRISPR–Cas9 S97L) was “resistant” and the MIC ([3]; E. coli W3110 gyrA D87N (FQ-resistant 2)) was 6.25 µM (≈ 2.78 µg/mL). It also gave an MIC ([3]; E. coli W3110 gyrA S83L (FQ-resistant 1)) of 6.25 µM (≈ 2.78 µg/mL), an MIC ([3]; E. coli W3110 gyrA S97L (LEI-800-resistant)) of over 50 µM and an MIC [4] of over 50 µM. The MIC [5] was 25 µM (≈ 11.1 µg/mL), the MIC ([6]; read-out: MIC S. aureus ATCC 29213) was over 50 µM and the MIC ([6]; read-out: MIC S. aureus ATCC BAA1717) was over 50 µM.
